Measured values from patent publication US5459260A, “Tricyclic or tetracyclic carbapenem compounds, their production and use” (Takeda Chemical Industries, Ltd., priority 1991, dated 1995).
≈ marks a conversion by molar mass, not a printed value.

Key:
Test in all cases: MIC by the agar dilution method
Type in all cases: cell-based
[1] = tested on: E. cloacae IFO 12937; conditions: Enterobacter cloacae, IFO12937, 10^8 CFU/ml, Trypticase soy agar, 37° C. overnight
Procedure: (§1) The MICs of the test compound were determined by the agar dilution method. Thus, 1.0 ml portions of serially diluted aqueous solutions of the test compound were poured in petri dishes and admixed with 9.0 ml portions of Trypticase soy agar. Then, a suspension (about 10^8 CFU/ml) of each test strain was smeared on each agar plate and incubated at 37° C. overnight. The lowest concentration of the test compound inhibiting growth of the test strain 100% was regarded as the minimal inhibitory concentration, MIC.

[2] = tested on: E. coli NIHJ JC-2; conditions: Escherichia coli, NIHJJC2, 10^8 CFU/ml, Trypticase soy agar, 37° C. overnight
Procedure: as §1

[3] = tested on: S. pneumoniae Type I; conditions: Streptococcus pneumoniae, 10^8 CFU/ml, Trypticase soy agar, 37° C. overnight
Procedure: as §1

[4] = tested on: C. diphtheriae Tronto; conditions: Corynebacterium diphtheriae, 10^8 CFU/ml, Trypticase soy agar, 37° C. overnight
Procedure: as §1

[5] = tested on: P. mirabilis IFO 3849; conditions: Proteus mirabilis, IFO3849, 10^8 CFU/ml, Trypticase soy agar, 37° C. overnight
Procedure: as §1

[6] = tested on: E. coli NIHJ T-7; conditions: Escherichia coli, NIHJT7, 10^8 CFU/ml, Trypticase soy agar, 37° C. overnight
Procedure: as §1

[7] = tested on: S. aureus 1840; conditions: Staphylococcus aureus, 10^8 CFU/ml, Trypticase soy agar, 37° C. overnight
Procedure: as §1

[8] = tested on: K. pneumoniae DT; conditions: Klebsiella pneumoniae, 10^8 CFU/ml, Trypticase soy agar, 37° C. overnight
Procedure: as §1

[9] = tested on: S. aureus FDA 209P; conditions: Staphylococcus aureus, FDA209P, 10^8 CFU/ml, Trypticase soy agar, 37° C. overnight
Procedure: as §1

[10] = tested on: S. pyogenes E-14; conditions: Streptococcus pyogenes, E14, 10^8 CFU/ml, Trypticase soy agar, 37° C. overnight
Procedure: as §1

[11] = tested on: C. freundii IFO 12681; conditions: Citrobacter freundii, IFO12681, 10^8 CFU/ml, Trypticase soy agar, 37° C. overnight
Procedure: as §1

[12] = tested on: S. aureus 308A-1; conditions: Staphylococcus aureus, 308A1, 10^8 CFU/ml, Trypticase soy agar, 37° C. overnight
Procedure: as §1

[13] = tested on: P. vulgaris IFO 3988; conditions: Proteus vulgaris, IFO3988, 10^8 CFU/ml, Trypticase soy agar, 37° C. overnight
Procedure: as §1

[14] = tested on: S. marcescens IFO 12648; conditions: Serratia marcescens, IFO12648, 10^8 CFU/ml, Trypticase soy agar, 37° C. overnight
Procedure: as §1

[15] = tested on: S. pyogenes S-8; conditions: Streptococcus pyogenes, S8, 10^8 CFU/ml, Trypticase soy agar, 37° C. overnight
Procedure: as §1

[16] = tested on: K. oxytoca TN 1711; conditions: Klebsiella oxytoca, TN1711, 10^8 CFU/ml, Trypticase soy agar, 37° C. overnight
Procedure: as §1

[17] = tested on: C. freundii TN 474; conditions: Citrobacter freundii, TN474, 10^8 CFU/ml, Trypticase soy agar, 37° C. overnight
Procedure: as §1

[18] = tested on: E. cloacae TN 583; conditions: Enterobacter cloacae, TN583, 10^8 CFU/ml, Trypticase soy agar, 37° C. overnight
Procedure: as §1

[19] = tested on: S. mitis America; conditions: Streptococcus mitis, 10^8 CFU/ml, Trypticase soy agar, 37° C. overnight
Procedure: as §1

[20] = tested on: E. coli NIHJ O-111; conditions: Escherichia coli, NIHJO111, 10^8 CFU/ml, Trypticase soy agar, 37° C. overnight
Procedure: as §1

[21] = tested on: M. morganii IFO 3168; conditions: Morganella morganii, IFO3168, 10^8 CFU/ml, Trypticase soy agar, 37° C. overnight
Procedure: as §1

C[C@@H](O)[C@H]1C(=O)N2C(C(=O)O)=C3[C@@H](CCO)CCO[C@@H]3[C@H]12 [Example 19]
MIC [1]: 6.25 µg/mL (≈ 21 µM) | MIC [2]: < 0.1 µg/mL | MIC [3]: < 0.1 µg/mL | MIC [4]: 0.2 µg/mL (≈ 0.673 µM) | MIC [5]: 0.39 µg/mL (≈ 1.31 µM) | MIC [6]: 1.56 µg/mL (≈ 5.25 µM) | MIC [7]: 0.2 µg/mL (≈ 0.673 µM) | MIC [8]: 0.2 µg/mL (≈ 0.673 µM) | MIC [9]: < 0.1 µg/mL | MIC [10]: < 0.1 µg/mL | MIC [11]: 0.2 µg/mL (≈ 0.673 µM) | MIC [12]: < 0.1 µg/mL | MIC [13]: 0.78 µg/mL (≈ 2.62 µM) | MIC [14]: 0.78 µg/mL (≈ 2.62 µM) | MIC [15]: < 0.1 µg/mL | MIC [16]: 1.56 µg/mL (≈ 5.25 µM) | MIC [17]: 6.25 µg/mL (≈ 21 µM) | MIC [18]: 12.5 µg/mL (≈ 42 µM) | MIC [19]: < 0.1 µg/mL | MIC [20]: < 0.1 µg/mL | MIC [21]: 0.78 µg/mL (≈ 2.62 µM)
